Each block holds one compound with its values, some of them ahead of it.
Key:
[1] = biological target: Non-receptor tyrosine-protein kinase TYK2 (Homo sapiens, UniProt P29597); test: Selectivity interaction (Kinase panel (Z-LYTE Assay)) EUB0001632a TYK2; conditions: at 10 µM
[2] = biological target: CDK8/Cyclin C (Homo sapiens) (UniProt P49336+P24863); test: Selectivity interaction (LanthaScreen Eu Kinase Binding Assay) EUB0001632a CDK8; type: protein-complex assay; conditions: at 10 µM
[3] = biological target: T1, Histone-lysine N-methyltransferase SMYD3 (Homo sapiens) (UniProt Q9H7B4); test: Selectivity interaction (Methyltransferase screen (radiometric assays, panel of 8 PRMTs, 21 protein lysine methyltransferases, 3 DNA methyltransferases, and one RNA methyltransferase)) EUB0000272b SMYD3
T1 sequence (whole entry): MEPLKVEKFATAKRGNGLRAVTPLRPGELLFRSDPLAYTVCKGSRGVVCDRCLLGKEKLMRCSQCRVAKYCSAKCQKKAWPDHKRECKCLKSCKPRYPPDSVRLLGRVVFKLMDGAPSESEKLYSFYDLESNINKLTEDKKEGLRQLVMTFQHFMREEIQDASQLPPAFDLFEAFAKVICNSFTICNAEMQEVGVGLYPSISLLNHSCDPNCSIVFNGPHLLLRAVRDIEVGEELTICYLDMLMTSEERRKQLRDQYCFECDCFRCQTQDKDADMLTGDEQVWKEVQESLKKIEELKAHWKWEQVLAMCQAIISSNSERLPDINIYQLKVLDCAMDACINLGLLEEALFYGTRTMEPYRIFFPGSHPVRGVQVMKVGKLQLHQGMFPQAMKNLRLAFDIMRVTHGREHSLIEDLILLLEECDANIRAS

[4] = biological target: Atypical kinase COQ8A, mitochondrial (Homo sapiens, UniProt Q8NI60); test: Selectivity interaction (Competition-binding assay (DiscoverX)) EUB0000229b ADCK3
[5] = biological target: T2, Mitogen-activated protein kinase kinase kinase 15 (Homo sapiens) (UniProt Q6ZN16); test: Selectivity interaction (KinomeScan (DiscoverX)) EUB0000092b MAP3K15; conditions: at 10 µM
T2 sequence (whole entry): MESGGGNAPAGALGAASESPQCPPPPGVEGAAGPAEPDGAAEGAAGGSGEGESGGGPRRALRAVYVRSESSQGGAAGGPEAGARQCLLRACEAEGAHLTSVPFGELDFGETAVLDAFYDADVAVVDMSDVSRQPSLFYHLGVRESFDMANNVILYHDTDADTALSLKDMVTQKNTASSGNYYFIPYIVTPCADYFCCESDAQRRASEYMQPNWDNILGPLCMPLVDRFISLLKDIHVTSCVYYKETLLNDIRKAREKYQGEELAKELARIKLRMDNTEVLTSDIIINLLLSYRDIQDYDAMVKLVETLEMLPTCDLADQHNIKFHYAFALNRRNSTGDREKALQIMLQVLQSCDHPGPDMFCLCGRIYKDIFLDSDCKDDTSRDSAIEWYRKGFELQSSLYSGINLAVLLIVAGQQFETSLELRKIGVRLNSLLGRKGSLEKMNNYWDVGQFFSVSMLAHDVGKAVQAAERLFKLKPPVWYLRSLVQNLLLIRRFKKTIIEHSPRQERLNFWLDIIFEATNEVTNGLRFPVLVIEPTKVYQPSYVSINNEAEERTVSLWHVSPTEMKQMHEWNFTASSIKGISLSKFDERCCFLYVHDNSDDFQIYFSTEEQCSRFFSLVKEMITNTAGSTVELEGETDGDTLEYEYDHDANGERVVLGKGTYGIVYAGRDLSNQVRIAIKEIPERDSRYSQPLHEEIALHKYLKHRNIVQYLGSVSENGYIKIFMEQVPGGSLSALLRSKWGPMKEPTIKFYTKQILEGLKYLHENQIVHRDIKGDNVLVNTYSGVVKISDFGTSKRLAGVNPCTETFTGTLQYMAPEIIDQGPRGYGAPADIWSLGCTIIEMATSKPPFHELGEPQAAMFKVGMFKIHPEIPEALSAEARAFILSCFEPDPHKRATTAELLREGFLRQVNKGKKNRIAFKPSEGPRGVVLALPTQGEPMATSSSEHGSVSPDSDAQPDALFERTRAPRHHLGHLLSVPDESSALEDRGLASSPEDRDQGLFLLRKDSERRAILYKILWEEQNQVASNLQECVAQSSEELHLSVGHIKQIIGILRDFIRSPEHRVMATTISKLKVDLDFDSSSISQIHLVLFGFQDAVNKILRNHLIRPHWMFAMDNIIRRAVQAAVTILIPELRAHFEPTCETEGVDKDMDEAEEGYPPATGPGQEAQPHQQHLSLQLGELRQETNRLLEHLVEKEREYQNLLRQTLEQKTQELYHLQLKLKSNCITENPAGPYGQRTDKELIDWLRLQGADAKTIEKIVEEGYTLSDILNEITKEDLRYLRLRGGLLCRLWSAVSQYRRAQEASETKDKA

[6] = biological target: T3, Tyrosine-protein kinase Mer (Homo sapiens) (UniProt Q12866); test: Selectivity interaction (Kinase panel (DSF assay)) EUB0001559a MERTK
T3 sequence (whole entry): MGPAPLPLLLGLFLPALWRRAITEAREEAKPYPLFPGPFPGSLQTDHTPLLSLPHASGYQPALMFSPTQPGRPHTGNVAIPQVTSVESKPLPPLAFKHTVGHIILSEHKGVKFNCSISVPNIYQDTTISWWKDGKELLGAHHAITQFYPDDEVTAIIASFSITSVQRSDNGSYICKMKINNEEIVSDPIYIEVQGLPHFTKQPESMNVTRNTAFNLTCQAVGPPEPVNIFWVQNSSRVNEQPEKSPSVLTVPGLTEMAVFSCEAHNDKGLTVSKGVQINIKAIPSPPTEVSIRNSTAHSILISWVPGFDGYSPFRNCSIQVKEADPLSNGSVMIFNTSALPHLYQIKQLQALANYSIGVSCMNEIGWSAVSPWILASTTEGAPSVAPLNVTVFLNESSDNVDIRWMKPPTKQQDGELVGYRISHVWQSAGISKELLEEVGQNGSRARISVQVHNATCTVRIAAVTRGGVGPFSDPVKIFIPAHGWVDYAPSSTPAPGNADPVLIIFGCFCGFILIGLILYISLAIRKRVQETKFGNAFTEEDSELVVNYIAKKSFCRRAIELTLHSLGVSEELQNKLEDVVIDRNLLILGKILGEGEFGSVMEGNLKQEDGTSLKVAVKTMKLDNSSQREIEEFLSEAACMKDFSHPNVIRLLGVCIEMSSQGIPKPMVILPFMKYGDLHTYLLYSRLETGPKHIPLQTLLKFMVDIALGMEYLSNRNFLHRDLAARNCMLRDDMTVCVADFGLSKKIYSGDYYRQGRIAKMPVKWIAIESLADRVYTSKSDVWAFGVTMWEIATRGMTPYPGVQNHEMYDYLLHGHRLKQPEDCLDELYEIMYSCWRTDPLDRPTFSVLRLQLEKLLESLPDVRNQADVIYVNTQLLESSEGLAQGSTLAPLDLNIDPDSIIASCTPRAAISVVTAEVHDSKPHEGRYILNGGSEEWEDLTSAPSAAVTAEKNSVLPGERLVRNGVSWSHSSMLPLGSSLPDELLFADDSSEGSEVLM

Atypical kinase COQ8A, mitochondrial, sequence (Q8NI60 whole entry): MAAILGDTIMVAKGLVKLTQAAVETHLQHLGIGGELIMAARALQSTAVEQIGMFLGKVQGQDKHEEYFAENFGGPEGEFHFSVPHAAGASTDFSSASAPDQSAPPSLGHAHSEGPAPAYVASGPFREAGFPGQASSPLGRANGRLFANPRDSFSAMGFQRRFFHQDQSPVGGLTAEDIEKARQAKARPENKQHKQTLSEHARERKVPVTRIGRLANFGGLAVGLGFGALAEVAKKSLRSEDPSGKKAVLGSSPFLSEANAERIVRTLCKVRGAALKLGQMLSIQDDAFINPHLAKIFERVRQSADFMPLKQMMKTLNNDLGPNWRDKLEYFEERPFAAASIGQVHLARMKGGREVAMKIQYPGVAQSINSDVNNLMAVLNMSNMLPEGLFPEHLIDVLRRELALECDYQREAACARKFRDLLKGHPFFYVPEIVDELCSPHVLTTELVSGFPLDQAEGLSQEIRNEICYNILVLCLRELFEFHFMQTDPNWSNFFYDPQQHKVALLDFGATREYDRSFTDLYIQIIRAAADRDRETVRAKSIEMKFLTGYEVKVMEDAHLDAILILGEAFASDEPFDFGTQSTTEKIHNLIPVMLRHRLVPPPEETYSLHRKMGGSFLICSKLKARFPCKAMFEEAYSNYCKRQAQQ
Non-receptor tyrosine-protein kinase TYK2, sequence (P29597 whole entry): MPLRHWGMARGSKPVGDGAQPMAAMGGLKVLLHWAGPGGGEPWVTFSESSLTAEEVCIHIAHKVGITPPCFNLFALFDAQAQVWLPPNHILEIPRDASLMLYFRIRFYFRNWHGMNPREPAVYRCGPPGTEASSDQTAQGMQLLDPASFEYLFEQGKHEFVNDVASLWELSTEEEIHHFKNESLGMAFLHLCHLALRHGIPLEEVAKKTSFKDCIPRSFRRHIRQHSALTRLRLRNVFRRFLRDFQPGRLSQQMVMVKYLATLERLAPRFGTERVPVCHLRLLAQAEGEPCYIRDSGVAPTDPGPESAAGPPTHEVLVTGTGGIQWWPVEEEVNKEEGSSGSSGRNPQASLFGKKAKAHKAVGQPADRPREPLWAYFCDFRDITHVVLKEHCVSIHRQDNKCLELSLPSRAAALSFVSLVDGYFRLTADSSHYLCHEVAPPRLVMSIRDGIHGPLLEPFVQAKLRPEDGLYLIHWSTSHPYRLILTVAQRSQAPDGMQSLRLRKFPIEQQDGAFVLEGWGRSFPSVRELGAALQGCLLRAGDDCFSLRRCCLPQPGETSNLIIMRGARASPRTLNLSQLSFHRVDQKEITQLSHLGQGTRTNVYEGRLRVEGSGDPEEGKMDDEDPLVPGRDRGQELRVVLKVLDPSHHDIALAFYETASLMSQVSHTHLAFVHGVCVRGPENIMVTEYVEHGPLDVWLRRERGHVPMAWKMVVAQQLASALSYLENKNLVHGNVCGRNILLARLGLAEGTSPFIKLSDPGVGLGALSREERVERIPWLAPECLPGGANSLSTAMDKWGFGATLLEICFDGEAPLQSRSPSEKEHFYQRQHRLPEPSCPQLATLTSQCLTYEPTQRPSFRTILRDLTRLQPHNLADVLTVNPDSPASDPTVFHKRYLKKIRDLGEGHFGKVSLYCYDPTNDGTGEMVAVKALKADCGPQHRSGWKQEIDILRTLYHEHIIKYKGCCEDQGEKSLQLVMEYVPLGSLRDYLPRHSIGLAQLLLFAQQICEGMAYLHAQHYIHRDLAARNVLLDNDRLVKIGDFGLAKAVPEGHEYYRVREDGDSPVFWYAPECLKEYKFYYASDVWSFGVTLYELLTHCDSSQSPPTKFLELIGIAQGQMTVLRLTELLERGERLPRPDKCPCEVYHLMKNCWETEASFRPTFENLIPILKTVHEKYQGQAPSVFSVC

SMILES: COc1cc(N(C)c2ccnc3ccc(C(F)(F)F)cc23)cc(OC)c1OC
- Kd [4]: > 10 µM

SMILES: CCC(=O)N1CCN(c2ccc(-n3c(=O)ccc4cnc5ccc(-c6cnc7ccccc7c6)cc5c43)cc2C(F)(F)F)CC1
- % of control [5]: 100%

Results, then the compound that gave them:

- % of control [1]: 2.01%
- % of inhibition [2]: 17.1%
SMILES: Cn1cc(-n2cnc3c(NCc4nc5cc(Cl)c(Cl)cc5[nH]4)nc(N4CCOCC4)nc32)cn1

- % of activity ([3]; at 1 µM): 97.3%
- % of activity ([3]; at 10 µM): 102%
SMILES: Cc1cc(C)cc([C@H]2c3cc(C)ccc3NC(=O)CN2C(=O)c2ccc(Br)s2)c1

- dTM [6]: 0.3 K
SMILES: CN(C(=O)c1cnn2cccnc12)c1cc2c(cc1N1CCOCC1)C(=O)N(C[C@@H](F)C(C)(C)O)C2
